From patent US10273208B2, “Screening methods for the binding affinity of chemical entities to biological molecules and NEDD4-1 inhibitors identified by the screening methods” (Northwestern University, priority 2014, dated 2019)
“Also recorded” adds a separate entry of the source. Values belong to the compound of their own block, whether it stands above or below them.

How the values were obtained:
NEDD4-1 HECT domain [1] = target: T1, NEDD4-1 HECT domain (Homo sapiens, UniProt P46934); experiment: Covalent labeling of NEDD4-1 HECT domain (gel filtration, whole protein ESI-MS); assay type: binding
T1 construct: to elute NEDD4-1 HECT domain (50 mM HEPES, 150 mM NaCl, 0.1 mM EDTA 1 mM DTT); GST (N, cleaved yes); made in house; host or cells: E. coli BL21
T1 sequence (P46934 with tags, fused parts or gaps): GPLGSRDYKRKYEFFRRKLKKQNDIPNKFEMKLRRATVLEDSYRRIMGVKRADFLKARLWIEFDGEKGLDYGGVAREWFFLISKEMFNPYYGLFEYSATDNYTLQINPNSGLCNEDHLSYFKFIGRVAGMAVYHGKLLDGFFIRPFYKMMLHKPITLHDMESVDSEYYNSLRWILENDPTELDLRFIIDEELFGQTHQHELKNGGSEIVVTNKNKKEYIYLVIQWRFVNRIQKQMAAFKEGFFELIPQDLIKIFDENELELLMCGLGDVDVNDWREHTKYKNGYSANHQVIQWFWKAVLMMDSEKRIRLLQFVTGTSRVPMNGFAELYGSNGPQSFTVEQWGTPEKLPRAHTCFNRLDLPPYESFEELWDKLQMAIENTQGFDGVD
Procedure: 10 μM of NEDD4-1 HECT domain in 50 mM HEPES 150 mM NaCl 0.1 mM EDTA 1 mM DTT pH 7.5 was treated with a mixture of ten fragments (from 10 mM each DMSO stock solution mixtures; final concentrations: 100 μM of each fragment, and 1% DMSO). Fragment structures and mixture compositions were the same as reported previously. The reaction mixture was incubated for 4 h at 23° C. before being passed through Zeba gel filtration columns (Thermo, 7K MWCO) to remove unreacted fragments. The protein solution was then immediately analyzed by whole protein LC/ESI-MS.
Accurate-mass data were obtained on an Agilent 6210A LC-TOF mass spectrometer in positive ion mode using electrospray ionization. Samples were chromatographed on the LC-TOF instrument using a Poroshell 120 EC-C18 HPLC column (2.1*50 mm, 2.7 micron), an Agilent Series 1200 HPLC binary pump, and an Agilent Series 1200 autoinjector. The HPLC column was held at 45° C. and the autosampler was held at 8° C. Mobile Phase A was a solution of 0.1% formic acid in water:acetonitrile (19:1). Mobile Phase B was a solution of 0.1% formic acid in acetonitrile. The flow rate was set to 250 μL/min. The gradient used was 0% B for 2 minutes, ramping linearly to 90% B from 2 minutes to 5 minutes, holding at 90% B from 5 minutes to 7 minutes, and then returning to 0% B at 7.1 minutes. The column was allowed to equilibrate for 2.7 minutes before the next injection was initiated. The eluent from the column was diverted to waste for the first 2 minutes. The spectra were acquired from 301 to 3200 daltons using a gas temperature of 340° C., a gas flow of 7 liters/min, and the nebulizer gas at 35 psi. The following voltages were used: capillary 4200 V, fragmentor 230V, skimmer 64V, and octapole RF peak 250V. Spectra were acquired at a rate of 1 spectra/sec. The data was processed using MassHunter software version B.02.00. Maximum entropy deconvolutions were performed with a Mass Step of 1, S/N Threshold of 30, Average Mass at 90% of Peak Height, and 5 Charge States Minimum.
10 μM of NEDD4-1 HECT domain in 50 mM HEPES 150 mM NaCl 0.1 mM EDTA 1 mM DTT pH 7.5 was treated with 1 mM of inhibitor 1 or 2 (from 100 mM DMSO stock solution; final concentrations: 1 mM of inhibitor, 1% DMSO, and 0.2% CHAPS to solubilize the inhibitors at 1 mM). The reaction mixture was incubated for 4 h at 23° C. before being passed through Zeba gel filtration columns (Thermo, 7K MWCO) to remove unreacted inhibitor. The protein solution was then immediately used for crystallization or enzymatic assay.

NEDD4-1 HECT domain [2] = target: T1, NEDD4-1 HECT domain; experiment: In vitro ubiquitination assays; assay type: biochemical; settings: NEDD4-1 HECT pretreated with 1 mM compound for 3 h, quenched after 5 min
Procedure: FIG. 15A, FIG. 15B and FIG. 15C. (FIG. 15A) Enzymatic assay with compounds 1, 2, and 4. NEDD4-1 HECT domain was pretreated with 1% DMSO (lane 1), or 1 mM of compounds 1 (lane 2), 2 (lane 3), or 4 (lane 4) for 3 h before beginning the assay. The reaction mixtures were quenched after 5 min, and polyubiquitin chains were detected by Western blot with anti-ubiquitin antibody. (FIG. 15B) Cartoon depiction of the crystal structure of NEDD4-1:1 with key side chains and the inhibitor shown as spheres. (FIG. 15C) Close-up view of the inhibitor-binding site with the key side chains depicted as sticks and colored by atom type. The 2FO-FC electron density map (mesh, contoured at 1.0 σ) is presented for Cys^627 and 1.
FIG. 16A, FIG. 16B, FIG. 16C and FIG. 16D. (FIG. 16A) and (FIG. 16B) Compound 6 disrupts the NEDD4-1:Ub interaction as shown by a fluorescence polarization assay. Mean±s.e.m., n=3. (FIG. 16C) Compound 6 inhibits the ability of NEDD4-1 to polyubiquitinate the Wbp2-C-K222 protein substrate. NEDD4-1 was pretreated with 1% DMSO (lane 1), or 100 μM of compound 6 (lane 2) or compound 4 (lane 3) for 1.5 h before beginning the assay. Reaction mixtures were quenched at the indicated times and the amount of ubiquitinated Wbp2-C-K222 was determined using in-gel fluorescence. (FIG. 16D) Quantification of polyubiquitin chains in FIG. 16B. Mean±s.e.m., n=2. […]

[3] = target: T2, NEDD4-1 HECT:ubiquitin-fluorescein interaction (Homo sapiens, UniProt P46934); experiment: Fluorescence polarization assay of NEDD4-1:Ub binding; settings: NEDD4-1 HECT 7.98 μM, ubiquitin-fluorescein 50 nM, 1 h
T2 construct: to elute NEDD4-1 HECT domain (50 mM HEPES, 150 mM NaCl, 0.1 mM EDTA 1 mM DTT); GST (N, cleaved yes); made in house; host or cells: E. coli BL21
T2 sequence (P46934 with tags, fused parts or gaps): T1 sequence (P46934 with tags, fused parts or gaps)
Procedure: NEDD4-1 HECT (7.98 μM) and ubiquitin-fluorescein (50 nM, Lifesensors) in 50 mM HEPES pH 7.5 150 mM NaCl 0.1 mM EDTA were treated with DMSO or varying concentrations of inhibitor in 1% DMSO in black 96 well plates. Changes in fluorescence polarization were monitored over 1 h with a Biotek Synergy 4 plate reader. Slopes of ln(polarization) vs. time were plotted with GraphPad Prism and used to determine the pseudo-first order rate contstant kobs for a given concentration of inhibitor. The values of kinact/KI for each inhibitor were then determined by fitting the kobs vs. [inhibitor] plot to the equation kobs=kinact*[inhibitor]/([inhibitor]+KI). All reactions were performed in triplicate and plotted as mean±s.e.m.

[4] = target: T3, NEDD4-1 (~120 kDa band) in TC71 Ewing's sarcoma cells (Homo sapiens, UniProt P46934); experiment: Cell-based selectivity studies with alkyne probe 15, click reaction, in-gel fluorescence; settings: pretreatment 1 h, then 2 μM probe 15
T3 sequence (P46934 1-900 isoform P46934-4): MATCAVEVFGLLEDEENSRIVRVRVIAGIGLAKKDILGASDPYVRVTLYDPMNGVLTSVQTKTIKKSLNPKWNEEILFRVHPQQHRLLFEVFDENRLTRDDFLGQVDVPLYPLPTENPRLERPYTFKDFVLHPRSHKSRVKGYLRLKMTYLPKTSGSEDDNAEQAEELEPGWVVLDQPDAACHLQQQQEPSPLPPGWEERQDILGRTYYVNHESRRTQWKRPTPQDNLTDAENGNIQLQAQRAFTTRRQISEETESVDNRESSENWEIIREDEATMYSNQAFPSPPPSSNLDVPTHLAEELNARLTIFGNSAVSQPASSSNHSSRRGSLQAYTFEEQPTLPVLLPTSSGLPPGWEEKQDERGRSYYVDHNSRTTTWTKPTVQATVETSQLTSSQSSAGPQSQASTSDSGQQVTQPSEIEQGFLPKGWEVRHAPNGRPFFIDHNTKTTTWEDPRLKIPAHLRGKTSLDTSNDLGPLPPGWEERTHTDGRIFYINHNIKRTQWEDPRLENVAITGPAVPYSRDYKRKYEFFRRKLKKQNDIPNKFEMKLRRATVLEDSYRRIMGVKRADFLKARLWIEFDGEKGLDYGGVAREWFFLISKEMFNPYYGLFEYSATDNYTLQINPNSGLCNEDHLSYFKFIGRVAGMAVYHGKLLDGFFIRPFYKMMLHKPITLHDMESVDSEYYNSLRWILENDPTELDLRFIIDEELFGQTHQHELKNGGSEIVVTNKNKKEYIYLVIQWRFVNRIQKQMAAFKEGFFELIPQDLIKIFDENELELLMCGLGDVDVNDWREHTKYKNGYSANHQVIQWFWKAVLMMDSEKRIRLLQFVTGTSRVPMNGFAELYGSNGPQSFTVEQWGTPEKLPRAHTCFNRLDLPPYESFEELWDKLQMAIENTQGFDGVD
Procedure: We treated TC71 Ewing's sarcoma cells (NEDD4-1 positive),^[6b] with 2 μM of compound 15, followed by lysis, click reaction with rhodamine azide, and in-gel fluorescence.^[15]
TC71 cells were cultured in Iscove's Modified Dulbecco's Medium (IMDM), 20% (v/v) FBS, 4 mM glutamine, and lx ITS (5 μg/mL insulin, 5 μg/mL transferrin, 5 ng/mL selenous acid). Cells were grown to confluence in 6-well plates (9.6 cm^2 per well). The growth medium was aspirated off and replaced with 2 mL serum-free IMDM containing 0.1% DMSO or the indicated concentration of inhibitor in 0.1% DMSO. After 1 h incubation time at 37° C., cells were treated with 0.1% DMSO or 2 μM of probe 15 in 0.1% DMSO for an additional hour. […] Proteins were then resolved by SDS-PAGE 7.5% or 15% acrylamide gels, and subjected to in-gel scanning fluorescence imaging on the Typhoon 9400 at 610 nm excitation. The gel was then stained with Coomassie Brilliant Blue to visualize all proteins. Western blots were performed with anti-NEDD4-1 antibody from Cell Signaling (2740S).

- labeling of NEDD4-1 (NEDD4-1 HECT domain [1]; compound 100 μM, NEDD4-1 10 μM, 4 h): ~40%
- labeling of NEDD4-1 HECT domain (qualitative) (NEDD4-1 HECT domain [1]; compound 100 μM, NEDD4-1 HECT 10 μM, 4 h): monolabel
- labeling of NEDD4-1 in the presence of ubiquitin (NEDD4-1 HECT domain [1]; compound 100 μM, NEDD4-1 HECT 10 μM, ubiquitin 60 μM, 4 h): completely inhibited
- covalent modification of NEDD4-1 HECT domain in the mixture screen (NEDD4-1 HECT domain [1]; ten mixtures of ten fragments, 100 μM each, 4 h): weak covalent modifiers
SMILES: COC(=O)/C=C/CNC(=O)c1c(C)n(C)c2ccc(OC)cc12 [Compound 1, Methyl(E)-4-(5-methoxy-1,2-dimethyl-1H-indole-3-carboxamido)but-2-enoate]
- modification of NEDD4-1 HECT domain at 1 mM (NEDD4-1 HECT domain [1]; compound 1 mM, 3-4 h): complete modification; also recorded: fully labels NEDD4-1 HECT domain after 3 h, with minor non-specific dilabeling
- polyubiquitin chain assembly by NEDD4-1 (anti-ubiquitin Western blot) (NEDD4-1 HECT domain [2]): defective at assembling polyubiquitin chains; also recorded: inhibition of polyubiquitization

SMILES: COC(=O)/C=C/CNC(=O)c1c(C)n(C2CCCC2)c2ccc(OC)cc12 [Compound 6]
- kinact [3]: 5.8e-05 s⁻¹
- KI (inactivation constant) ([3]; read-out: K1 (disruption of NEDD4-1:Ub binding)): 29.3 µM

- effect of pretreatment on probe 15 labeling of the ~120 kDa band (NEDD4-1) [4]: inactive
SMILES: COC(=O)/C=C/CNC(=O)c1c(C)n(C)c2ccccc12 [Compound 11, Methyl(E)-4-(1,2-dimethyl-1H-indole-3-carboxamido)but-2-enoate]
